In US20210102239A1, “METHOD FOR DETERMINING BACTERIAL NUMBER IN SPECIMEN” (MITSUI CHEMICALS, INC., priority 2017, published 2021):

What was measured:
[1] = tested on: Klebsiella oxytoca, Haemophilus influenzae, Streptococcus pneumoniae; assay: Case 2: pathogen count (nested PCR) and biomarkers in blood before/after antibiotic treatment; assay type: in vivo, human (sepsis patient); conditions: for BT (body temperature): pretreatment 39.2; for WBC: pretreatment 108.8; for CRP: pretreatment 150.3; for Presepsin: pretreatment 5379; for IL-6: pretreatment 122000; for Pathogen (Ave): pretreatment 175270
Description: First, bacterial cells were collected from a blood specimen by centrifuging the whole blood at a low rate of 100×g for 5 minutes to separate blood cells, centrifuging the resultant supernatant (containing buffy coat) at a high rate of 20,000×g for 10 minutes to obtain a pellet.
Using DNA of a pathogenic bacterium taken from the blood specimen according to the method of Step 1 as a template, nested PCR (1st PCR: 30 cycle→100 double dilution→2nd PCR: 30 to 35 cycles) is carried out. The bacterial cells in patient specimens vary in a wide range from very small to large number. Since it is difficult to accurately determine the bacterial number in a single cycle of PCR, nested PCR methods are used in combination.
Subsequently, using pathogenic bacterium DNA of Step 1 as a template, nested PCR was carried out together with a quantification control in the conditions described in Step 2. In the 1st PCR and 2nd PCR for quantification, the following bacterial universal primer (primer for detecting almost all bacteria) was used. The target region of the bacterial universal primer is a bacterial conserved region (base sequence region common in almost all bacteria) of a 16S ribosomal RNA gene. A predetermined bacterium is quantified by a bacterial species-specific primer; however, a pathogenic bacterium is not identified in the early stage of sepsis. Because of this, a bacterial species-specific primer cannot be used. Accordingly, unless a bacterial universal primer is used, an unidentified bacterium cannot be detected.
As mentioned above, E. coli DNA samples of three different concentrations and of a known bacterial number were used as quantification controls. Based on the data of three quantification controls different in concentration, a calibration curve was prepared. Based on bacterial DNA extracted from a patient specimen, the number of pathogenic bacterial cells was determined. Since the number of bacterial cells was obtained as an E. coli cell-number equivalent used as a quantification control, the number of bacterial cells in a specimen can be more easily, rapidly and accurately determined.
(§1) According to Step 1 to Step 4 of Example 1, a pathogenic bacterium rapid quantification test using sepsis patient's specimens (EDTA blood collection tube, 2 mL) was carried out. […] Blood was sampled before treatment with an antibiotic (pretreatment), and 24 hours (after 24 hrs.) and 72 hours (after 72 hrs.) after administration of the antibiotic. At the three points, a pathogenic bacterium rapid quantification test was carried out together with measurement of body temperature, white blood cell count, CRP, presepsin and IL-6. Furthermore, a blood specimen sampled before the antibiotic treatment was subjected to a blood culture method to identify a pathogenic bacterium and subjected to a drug sensitivity test. General information about individual cases is as follows.

H. influenzae = assay: drug sensitivity test of the pathogenic bacterium from blood culture; assay type: cell-based, Haemophilus influenzae; conditions: Case 2, isolate from blood specimen sampled before antibiotic treatment
Description: as §1

K. oxytoca = assay: as above; assay type: cell-based, Klebsiella oxytoca; conditions: Case 2, isolate from blood specimen sampled before antibiotic treatment
Description: as §1

S. pneumoniae = assay: as above; assay type: cell-based, Streptococcus pneumoniae; conditions: Case 2, isolate from blood specimen sampled before antibiotic treatment
Description: as §1

**Q.** Which results are given for `CO/N=C(\C(=O)N[C@@H]1C(=O)N2C(C(=O)[O-])=C(C[N+]3(C)CCCC3)CS[C@H]12)c1csc(N)n1` [cefepim]?
**A.** BT (body temperature) ([1]; Case 2, 24 h after antibiotic): 36.4 °C; WBC ([1]; Case 2, 24 h after antibiotic): 418.1 × 100/μL; CRP ([1]; Case 2, 24 h after antibiotic): 240.0 mg/L; Presepsin ([1]; Case 2, 24 h after antibiotic): 6202 ng/mL; IL-6 ([1]; Case 2, 24 h after antibiotic): 7400 pg/mL; Pathogen (Ave) ([1]; Case 2, 24 h after antibiotic): 31453 cells/ml; BT (body temperature) ([1]; Case 2, 72 h after antibiotic): 36.3 °C; WBC ([1]; Case 2, 72 h after antibiotic): 348.7 × 100/μL; CRP ([1]; Case 2, 72 h after antibiotic): 145.5 mg/L; Presepsin ([1]; Case 2, 72 h after antibiotic): 6060 ng/mL; IL-6 ([1]; Case 2, 72 h after antibiotic): 168 pg/mL; Pathogen (Ave) ([1]; Case 2, 72 h after antibiotic): 2066 cells/ml; drug sensitivity (H. influenzae): sensitive; drug sensitivity (K. oxytoca): sensitive; drug sensitivity (S. pneumoniae): medium-level sensitivity
